Source: patent US12391737B2, “Soluble NPY2 receptor agonists” (Boehringer Ingelheim International GmbH, priority 2020, dated 2025)

Key:
Solubility determination = settings: for Sol6: pH 6; for Sol7: pH 7
Method in brief: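 Solubility is derived from the ratio of reversed-phase peak areas, filtered sample over a control dissolved at 1 mg/ml in 50% acetonitrile. Peptides are agitated for 2 hours at room temperature in 0.1 M sodium diphosphate at pH 6.4 or 7.0, aiming at 10 mg/ml.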

[1] = biological target: T1, Human Neuropeptide Y2 Receptor (Homo sapiens, UniProt P49146); assay: Radioligand binding competition assay (RLB); settings: Table 3, 125I-PYY(1-36) competition; read-out: Ki
T1 construct: purchased CHEMICON HTS066M
T1 sequence (P49146 1-381): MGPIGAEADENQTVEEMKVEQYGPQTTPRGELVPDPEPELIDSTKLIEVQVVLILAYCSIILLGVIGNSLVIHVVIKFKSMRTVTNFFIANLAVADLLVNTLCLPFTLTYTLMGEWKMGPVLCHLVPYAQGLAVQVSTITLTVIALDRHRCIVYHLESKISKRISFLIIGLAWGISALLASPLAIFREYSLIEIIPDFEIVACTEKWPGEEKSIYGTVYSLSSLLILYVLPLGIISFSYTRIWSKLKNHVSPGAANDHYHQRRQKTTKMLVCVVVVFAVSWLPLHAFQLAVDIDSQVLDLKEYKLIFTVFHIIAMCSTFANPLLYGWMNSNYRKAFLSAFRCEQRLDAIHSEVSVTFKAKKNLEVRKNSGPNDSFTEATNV
Method in brief: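 Filtration binding assay on human Y2 receptor membrane preparation, 0.5 μg protein per well, in 50 mM HEPES pH 7.4 containing 5 mM MgCl2, 1 mM CaCl2 and 0.2% ovalbumin. Plates shake 2 h at room temperature before harvest and scintillation counting.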

Compound	Sol6 (Solubility determination) [mg/mL]	Sol7 (Solubility determination) [mg/mL]	Ki [1] [nM]
CC(C)CC(=O)N[C@@H](C)C(=O)N1CCC[C@H]1C(=O)N[C@@H](CCC(=O)O)C(=O)N[C@@H](CCCCNC(=O)CCCCCNC(=O)CC[C@H](NC(=O)CCCCCCCCCCCCCCCCC(=O)O)C(=O)O)C(=O)N1CCC[C@H]1C(=O)N[C@@H](CCC(=O)O)C(=O)N[C@@H](CCC(=O)O)C(=O)N[C@@H](CC(=O)O)C(=O)N[C@@H](C)C(=O)N[C@@H](CO)C(=O)N[C@@H](C)C(=O)N[C@@H](CCC(=O)O)C(=O)N[C@@H](CCC(=O)O)C(=O)N[C@@H](CC(C)C)C(=O)N[C@@H](CCC(N)=O)C(=O)N[C@@H](CCC(N)=O)C(=O)N[C@@H](Cc1ccc(O)cc1)C(=O)N[C@@H](Cc1ccc(O)cc1)C(=O)N[C@H](C(=O)N[C@@H](CO)C(=O)N[C@@H](CC(C)C)C(=O)N[C@@H](CCCNC(=N)N)C(=O)N[C@@H](Cc1c[nH]cn1)C(=O)N[C@@H](Cc1ccc(O)cc1)C(=O)N[C@@H](Cc1ccc(O)cc1)C(=O)N[C@@H](CC(N)=O)C(=O)N[C@@H](Cc1c[nH]c2ccccc12)C(=O)N[C@@H](CC(C)C)C(=O)N[C@H](C(=O)N[C@@H](CCCNC(=N)N)C(=O)N[C@@H](CCC(N)=O)C(=O)N[C@@H](CCCNC(=N)N)C(=O)N[C@@H](Cc1ccc(O)cc1)C(N)=O)[C@@H](C)O)C(C)C [Compound 34, N{alpha-4}-(3-methylbutanoyl)-N{epsilon-7}-(6-[(4S)-4-carboxy-4-(17-carboxyheptadecanamido)butanamido]hexanoyl)[4A,7K,9E,14A,18Q,19Q,22V,28Y,30W,31L]-hPYY(4-36)]	9.2	9.1	3.53
CC(C)CC(=O)N[C@@H](C)C(=O)N1CCC[C@H]1C(=O)N[C@@H](CCC(=O)O)C(=O)N[C@@H](CCCCNC(=O)CCCCCNC(=O)CC[C@H](NC(=O)CCCCCCCCCCCCCCCCC(=O)O)C(=O)O)C(=O)N1CCC[C@H]1C(=O)N[C@@H](CCC(=O)O)C(=O)N[C@@H](CCC(=O)O)C(=O)N[C@@H](CC(=O)O)C(=O)N[C@@H](CCC(=O)O)C(=O)N[C@H](C(=O)N1CCC[C@H]1C(=O)N[C@@H](CCC(=O)O)C(=O)N[C@@H](CCC(=O)O)C(=O)N[C@@H](CC(C)C)C(=O)N[C@@H](CCC(N)=O)C(=O)N[C@@H](CCCNC(=N)N)C(=O)N[C@@H](Cc1ccc(O)cc1)C(=O)N[C@@H](Cc1ccc(O)cc1)C(=O)N[C@H](C(=O)N[C@@H](CO)C(=O)N[C@@H](CC(C)C)C(=O)N[C@@H](CCCNC(=N)N)C(=O)N[C@@H](Cc1c[nH]cn1)C(=O)N[C@@H](Cc1ccc(O)cc1)C(=O)N[C@@H](Cc1ccc(O)cc1)C(=O)N[C@@H](CC(N)=O)C(=O)N[C@@H](Cc1c[nH]c2ccccc12)C(=O)N[C@@H](CC(C)C)C(=O)N[C@H](C(=O)N[C@@H](CCCNC(=N)N)C(=O)N[C@@H](CCC(N)=O)C(=O)N[C@@H](CCCNC(=N)N)C(=O)N[C@@H](Cc1ccc(O)cc1)C(N)=O)[C@@H](C)O)C(C)C)[C@@H](C)O [Compound 8, N{alpha-4}-(3-methylbutanoyl)-N{epsilon-7}-(6-[(4S)-4-carboxy-4-(17-carboxyheptadecanamido)butanamido]hexanoyl)[4A,7K,9E,12E,13T,18Q,22V,28Y,30W,31L]-hPYY(4-36)]	9.7	9.6	106
CC(C)CC(=O)N[C@@H](C)C(=O)N1CCC[C@H]1C(=O)N[C@@H](CCC(=O)O)C(=O)N[C@@H](CCCCNC(=O)CCCCCNC(=O)CC[C@H](NC(=O)CCCCCCCCCCCCCCCCC(=O)O)C(=O)O)C(=O)N1CCC[C@H]1C(=O)N[C@@H](CCC(=O)O)C(=O)N[C@@H](CCC(=O)O)C(=O)N[C@@H](CC(=O)O)C(=O)N[C@@H](C)C(=O)N[C@H](C(=O)N[C@@H](CCC(N)=O)C(=O)N[C@@H](CCC(=O)O)C(=O)N[C@@H](CCC(=O)O)C(=O)N[C@@H](CC(C)C)C(=O)N[C@@H](CCC(N)=O)C(=O)N[C@@H](CCCNC(=N)N)C(=O)N[C@@H](Cc1ccc(O)cc1)C(=O)N[C@@H](Cc1ccc(O)cc1)C(=O)N[C@H](C(=O)N[C@@H](CO)C(=O)N[C@@H](CC(C)C)C(=O)N[C@@H](CCCNC(=N)N)C(=O)N[C@@H](Cc1c[nH]cn1)C(=O)N[C@@H](Cc1ccc(O)cc1)C(=O)N[C@@H](Cc1ccc(O)cc1)C(=O)N[C@@H](CC(N)=O)C(=O)N[C@@H](Cc1c[nH]c2ccccc12)C(=O)N[C@@H](CC(C)C)C(=O)N[C@H](C(=O)N[C@@H](CCCNC(=N)N)C(=O)N[C@@H](CCC(N)=O)C(=O)N[C@@H](CCCNC(=N)N)C(=O)N[C@@H](Cc1ccc(O)cc1)C(N)=O)[C@@H](C)O)C(C)C)[C@@H](C)O [Compound 105, N{alpha-4}-(3-methylbutanoyl)-N{epsilon-7}-(6-[(4S)-4-carboxy-4-(17-carboxyheptadecanamido)butanamido]hexanoyl)-[4A,7K,9E,13T,14Q,18Q,22V,28Y,30W,31L]-hPYY(4-36)]	>10.0	9.9	5.97

Further compounds by falling Ki [1], results first:

Sol6 (Solubility determination) [mg/mL]	Sol7 (Solubility determination) [mg/mL]	Ki [1] [nM]	Compound
9.3	9.1	5.73	CC(C)CC(=O)N[C@@H](C)C(=O)N1CCC[C@H]1C(=O)N[C@@H](CCC(=O)O)C(=O)N[C@@H](CCCCNC(=O)CCCCCNC(=O)CC[C@H](NC(=O)CCCCCCCCCCCCCCCCC(=O)O)C(=O)O)C(=O)N1CCC[C@H]1C(=O)N[C@@H](CCC(=O)O)C(=O)N[C@@H](CCC(=O)O)C(=O)N[C@@H](CC(=O)O)C(=O)N[C@@H](C)C(=O)N[C@H](C(=O)N1CCC[C@H]1C(=O)N[C@@H](CCC(=O)O)C(=O)N[C@@H](CCC(=O)O)C(=O)N[C@@H](CO)C(=O)N[C@@H](CCC(N)=O)C(=O)N[C@@H](CCCNC(=N)N)C(=O)N[C@@H](Cc1ccc(O)cc1)C(=O)N[C@@H](Cc1ccc(O)cc1)C(=O)N[C@H](C(=O)N[C@@H](CO)C(=O)N[C@@H](CC(C)C)C(=O)N[C@@H](CCCNC(=N)N)C(=O)N[C@@H](Cc1c[nH]cn1)C(=O)N[C@@H](Cc1ccc(O)cc1)C(=O)N[C@@H](Cc1ccc(O)cc1)C(=O)N[C@@H](CC(N)=O)C(=O)N[C@@H](Cc1c[nH]c2ccccc12)C(=O)N[C@@H](CC(C)C)C(=O)N[C@H](C(=O)N[C@@H](CCCNC(=N)N)C(=O)N[C@@H](CCC(N)=O)C(=O)N[C@@H](CCCNC(=N)N)C(=O)N[C@@H](Cc1ccc(O)cc1)C(N)=O)[C@@H](C)O)C(C)C)[C@@H](C)O [Compound 119, N{alpha-4}-(3-methylbutanoyl)-N{epsilon-7}-(6-[(4S)-4-carboxy-4-(17-carboxyheptadecanamido)butanamido]hexanoyl)-[4A,7K,9E,13T,17S,18Q,22V,28Y,30W,31L]-hPYY(4-36)]
9.7	10.0	3.37	CC(C)CC(=O)N[C@@H](C)C(=O)N1CCC[C@H]1C(=O)N[C@@H](CCC(=O)O)C(=O)N[C@@H](CCCCNC(=O)CCCCCNC(=O)CC[C@H](NC(=O)CCCCCCCCCCCCCCCCC(=O)O)C(=O)O)C(=O)N1CCC[C@H]1C(=O)N[C@@H](CCC(=O)O)C(=O)N[C@@H](CCC(=O)O)C(=O)N[C@@H](CC(=O)O)C(=O)N[C@@H](C)C(=O)N[C@@H](CO)C(=O)N1CCC[C@H]1C(=O)N[C@@H](CCC(=O)O)C(=O)N[C@@H](CCC(=O)O)C(=O)N[C@@H](CC(C)C)C(=O)N[C@@H](CCC(N)=O)C(=O)N[C@@H](CCCNC(=N)N)C(=O)N[C@@H](Cc1ccc(O)cc1)C(=O)N[C@@H](Cc1ccc(O)cc1)C(=O)N[C@H](C(=O)N[C@@H](CCC(=O)O)C(=O)N[C@@H](CC(C)C)C(=O)N[C@@H](CCCNC(=N)N)C(=O)N[C@@H](Cc1c[nH]cn1)C(=O)N[C@@H](Cc1ccc(O)cc1)C(=O)N[C@@H](Cc1ccc(O)cc1)C(=O)N[C@@H](CC(N)=O)C(=O)N[C@@H](Cc1c[nH]c2ccccc12)C(=O)N[C@@H](CC(C)C)C(=O)N[C@H](C(=O)N[C@@H](CCCNC(=N)N)C(=O)N[C@@H](CCC(N)=O)C(=O)N[C@@H](CCCNC(=N)N)C(=O)N[C@@H](Cc1ccc(O)cc1)C(N)=O)[C@@H](C)O)C(C)C [Compound 125, N{alpha-4}-(3-methylbutanoyl)-N{epsilon-7}-(6-[(4S)-4-carboxy-4-(17-carboxyheptadecanamido)butanamido]hexanoyl)-[4A,7K,9E,18Q,22V,23E,28Y,30W,31L]-hPYY(4-36)]
9.0	9.1	2.87	CC(C)CC(=O)N[C@@H](C)C(=O)N1CCC[C@H]1C(=O)N[C@@H](C)C(=O)N[C@@H](CCCCNC(=O)CCCCCNC(=O)CC[C@H](NC(=O)CCCCCCCCCCCCCCCCC(=O)O)C(=O)O)C(=O)N1CCC[C@H]1C(=O)N[C@@H](CCC(=O)O)C(=O)N[C@@H](CCC(=O)O)C(=O)N[C@@H](CCC(=O)O)C(=O)N[C@@H](C)C(=O)N[C@@H](CO)C(=O)N1CCC[C@H]1C(=O)N[C@@H](CCC(=O)O)C(=O)N[C@@H](CCC(=O)O)C(=O)N[C@@H](CC(C)C)C(=O)N[C@@H](CCC(N)=O)C(=O)N[C@@H](CCCNC(=N)N)C(=O)N[C@@H](Cc1ccc(O)cc1)C(=O)N[C@@H](Cc1ccc(O)cc1)C(=O)N[C@H](C(=O)N[C@@H](CO)C(=O)N[C@@H](CC(C)C)C(=O)N[C@@H](CCCNC(=N)N)C(=O)N[C@@H](Cc1c[nH]cn1)C(=O)N[C@@H](Cc1ccc(O)cc1)C(=O)N[C@@H](Cc1ccc(O)cc1)C(=O)N[C@@H](CC(N)=O)C(=O)N[C@@H](Cc1c[nH]c2ccccc12)C(=O)N[C@@H](CC(C)C)C(=O)N[C@H](C(=O)N[C@@H](CCCNC(=N)N)C(=O)N[C@@H](CCC(N)=O)C(=O)N[C@@H](CCCNC(=N)N)C(=O)N[C@@H](Cc1ccc(O)cc1)C(N)=O)[C@@H](C)O)C(C)C [Compound 199, N{alpha-4}-(3-methylbutanoyl)-N{epsilon-7}-(6-[(4S)-4-carboxy-4-(17-carboxyheptadecanamido)butanamido]hexanoyl)-[4A,6A,7K,9E,11E,18Q,22V,28Y,30W,31L]-hPYY(4-36)]
